Peptide text beside a SMILES is read from it. * marks the point of attachment. X1 = C=CC(=O)NCCCCC(NC(=O)OCc1ccccc1)C(=O)N1CCN(C(=O)C(CCC(=O)*)NC(=O)c2cccc3ccccc23)CC1
Columns and labels:
PAMPA test = format: in vitro ADME; conditions: compound not detected in receptor compartment, limit of detection reported
From the text: The cell-impermeable inhibitors 17 and 18 were designed to violate virtually all of the rules for cellular permeability described by Lipinski and Veber. They were also empirically evaluated with respect to their pharmacokinetic properties, in particular to determine their cell permeability. In a PAMPA test, the −Log Pe values were very high (Table 2). […] Indeed, neither compound was even detected in the receptor compartment for the PAMPA, resulting in the lower limit of detection being reported as an approximate value.

FXIIIa = target: T1, FXIIIa (Homo sapiens, UniProt P00488); assay: TGase isozyme selectivity, FXIIIa with A101 substrate; format: biochemical; conditions: [I]/α identical to that of the TG2 assay
T1 construct: purchased Zedira GmbH (Darmstadt, Germany)
T1 sequence (P00488 39-732 limits assumed): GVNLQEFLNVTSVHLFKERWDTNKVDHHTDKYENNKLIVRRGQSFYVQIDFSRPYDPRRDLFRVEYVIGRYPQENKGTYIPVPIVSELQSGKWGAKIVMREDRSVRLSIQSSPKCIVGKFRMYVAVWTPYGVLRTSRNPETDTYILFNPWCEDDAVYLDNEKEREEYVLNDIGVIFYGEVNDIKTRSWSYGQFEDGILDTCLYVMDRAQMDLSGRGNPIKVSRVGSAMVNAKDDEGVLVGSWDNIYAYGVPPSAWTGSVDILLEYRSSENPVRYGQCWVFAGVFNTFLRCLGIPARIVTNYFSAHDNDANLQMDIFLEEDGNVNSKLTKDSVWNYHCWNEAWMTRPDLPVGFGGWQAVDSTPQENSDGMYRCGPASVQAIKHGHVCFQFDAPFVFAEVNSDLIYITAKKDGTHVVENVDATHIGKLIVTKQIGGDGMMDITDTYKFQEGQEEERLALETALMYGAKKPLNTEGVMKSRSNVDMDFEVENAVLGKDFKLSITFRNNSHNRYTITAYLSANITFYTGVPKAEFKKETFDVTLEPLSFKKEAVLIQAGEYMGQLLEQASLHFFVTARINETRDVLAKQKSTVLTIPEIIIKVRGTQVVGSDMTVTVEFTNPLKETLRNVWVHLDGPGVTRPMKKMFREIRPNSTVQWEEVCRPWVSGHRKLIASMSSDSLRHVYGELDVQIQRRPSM
From the text: (§1) In the development of probes for TGases, isozyme selectivity is always a significant challenge. Since the catalytic machinery of the active sites of all TGases features a conserved Gly-Gln-Cys-Trp-Val sequence, selectivity for one isozyme over the others requires exploitation of slight differences in the protein substrate binding sites. In order to assess the isozyme selectivity of our cell-impermeable inhibitors, TG2 and four other therapeutically relevant TGases (Factor XIII, TG1, TG3, and TG6) were exposed to a concentration of inhibitor representing the same apparent competition with respect to the assay substrate (AL5 [38] or A101 [42, 43]). In other words, both the substrate and inhibitor concentrations were varied so that the [I]/α values were identical. […] This provides confidence that in further applications, these cell-impermeable inhibitors will selectively target TG2 over other transglutaminases.
(§2) To monitor the activity of TG3a and TG6, a FRET-quenched substrate A101 (Zedira Gmbh) was used. […] The isopeptidase activity of the respective TGase was then monitored at Ex/Em = 313/418 nm with a BioTek Synergy 4 plate reader at 25 °C. […]

TG1 = target: T2, TG1 (Homo sapiens, UniProt P22735); assay: TGase isozyme selectivity, TG1 with AL5 substrate; format: biochemical; conditions: [I]/α identical to that of the TG2 assay
T2 construct: purchased Zedira GmbH (Darmstadt, Germany)
T2 sequence (P22735 1-817): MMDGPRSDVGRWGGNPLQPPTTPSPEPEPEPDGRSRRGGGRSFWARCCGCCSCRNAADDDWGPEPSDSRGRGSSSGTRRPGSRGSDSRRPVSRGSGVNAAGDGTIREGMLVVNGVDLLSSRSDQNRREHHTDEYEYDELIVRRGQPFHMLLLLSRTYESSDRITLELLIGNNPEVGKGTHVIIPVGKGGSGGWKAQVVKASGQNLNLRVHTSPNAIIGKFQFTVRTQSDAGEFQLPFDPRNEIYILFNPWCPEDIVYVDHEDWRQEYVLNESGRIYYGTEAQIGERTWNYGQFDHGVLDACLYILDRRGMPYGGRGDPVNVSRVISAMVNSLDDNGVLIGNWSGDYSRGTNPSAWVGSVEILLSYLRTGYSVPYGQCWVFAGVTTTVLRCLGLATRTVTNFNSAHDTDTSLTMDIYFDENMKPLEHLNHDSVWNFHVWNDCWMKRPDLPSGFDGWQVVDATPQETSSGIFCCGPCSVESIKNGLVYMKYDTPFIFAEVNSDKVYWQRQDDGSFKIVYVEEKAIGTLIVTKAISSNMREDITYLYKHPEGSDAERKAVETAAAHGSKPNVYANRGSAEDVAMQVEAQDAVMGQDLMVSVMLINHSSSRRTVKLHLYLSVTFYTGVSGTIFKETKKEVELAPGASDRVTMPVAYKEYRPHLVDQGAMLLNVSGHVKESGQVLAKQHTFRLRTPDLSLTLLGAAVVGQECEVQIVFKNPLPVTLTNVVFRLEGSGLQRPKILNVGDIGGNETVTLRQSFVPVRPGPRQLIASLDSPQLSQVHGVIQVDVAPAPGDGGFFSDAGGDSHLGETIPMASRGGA
From the text: as §1, §2

Log D = format: physicochemical
From the text: Table 2 Representative pharmacokinetic properties for cell-impermeable inhibitors 17 and 18. | column: 17; 18 (NCEG2)

SMILES	−Log Pe (PAMPA test)	inhibition of Factor XIII (FXIIIa)	inhibition of TG1 (TG1)	logD (Log D)
C=CC(=O)NCCCCC(NC(=O)OCc1ccccc1)C(=O)N1CCN(C(=O)C(CCC(=O)NCC(=O)NCC(=O)NCC(=O)NC(CC(=O)O)C(=O)NC(CC(=O)O)C(=O)NC(CC(=O)O)C(=O)O)NC(=O)c2cccc3ccccc23)CC1 (centres unmarked) [Compound 18] (X1-GGGDDD-OH; configuration not given here)	>8.79	no detectable inhibition	no detectable inhibition	< -2.63
C=CC(=O)NCCCCC(NC(=O)OCc1ccccc1)C(=O)N1CCN(C(=O)C(CCC(=O)NCCCCCC(=O)NC(CC(=O)O)C(=O)NC(CC(=O)O)C(=O)NC(CC(=O)O)C(=O)O)NC(=O)c2cccc3ccccc23)CC1 (centres unmarked) [Compound 17]	>9.02	no detectable inhibition	no detectable inhibition	< -2.73

From paper PMC10454375, “Cell-Impermeable Inhibitors Confirm That Intracellular Human Transglutaminase 2 Is Responsible for the Transglutaminase-Associated Cancer Phenotype” (International Journal of Molecular Sciences, 2023)
